According to US11000509B2, “Methods and compositions for daily ophthalmic administration of phentolamine to improve visual performance” (Ocuphire Pharma, Inc., priority 2013, dated 2021):
Counter-ions that a name gives are not always drawn.

System: eyes of patients suffering from severe night vision difficulty
Assay: Example 1 clinical study: mesopic contrast sensitivity with glare, Holladay Automated Contrast Sensitivity System
Format: in vivo, humans
Details: for percentage of eyes with at least a 50% improvement in contrast sensitivity relative to baseline: 0.5% or 1.0% (w/v) once daily, beginning with day 8
From the text: Sixty patients with normal day vision (i.e., 20/40 or better) but which suffer from severe night vision difficulty were enrolled in the study. During the first period of the study, patients were randomized into three groups. The groups received either placebo, 0.5% (w/v) phentolamine mesylate, or 1.0% (w/v) phentolamine mesylate once daily for 15 days. The patients were observed on days 1, 4, 8, and 15 prior to administering the ophthalmic solution of phentolamine mesylate and then observed again two hours after the ophthalmic solution of phentolamine mesylate was administered. During the second period of the study, all sixty patients were instructed to administer an ophthalmic solution of phentolamine mesylate (1% (w/v)) as needed, but no more than once daily to each eye. The ophthalmic solution of phentolamine mesylate contained: 1% (w/v) phentolamine mesylate, 4% (w/v) mannitol, 3 mM sodium acetate, and water. The placebo was a solution containing 4% (w/v) mannitol, 3 mM sodium acetate, and water.
Patients in the study satisfied the following criteria: (1) 18-45 years of age and suffer from severe night vision difficulty, (2) 0.3 log improvement at two of five spatial frequencies (1.5, 3, 6, 12, and 18 cycles per degree) in at least one eye before and during illumination of the contralateral eye, using the Holladay Automated Contrast Sensitivity System test under mesopic room illumination with glare, and (3) photopic distance high-contrast visual acuity (corrected or uncorrected) of 20/40 or better in at least one eye.
Patients were to meet with a clinician for evaluation on study days 1, 4, 8, 15, and a post-dosing follow-up evaluation three or more days after administering the last dose in the second period. When patients met with the clinician, the following observations were made by the clinician: (1) mesopic contrast sensitivity with and without glare using the Holladay Automated Contrast Sensitivity System test, (2) mesopic distance high-contrast visual acuity using E-ETDRS Acuity Testing, (3) mesopic distance low-contrast visual acuity using E-ETDRS Acuity Testing, (4) photopic distance high-contrast visual acuity using E-ETDRS Acuity Testing, and (5) eye redness using the Cornea and Contact Lens Research Unit (CCLRU) Redness Grading Scale developed by the School of Optometry, University of New South Wales, but that the grading scale was as follows: (0) none, (0.5) very slight, (1) slight, (2) moderate, and (3) severe.
The primary efficacy endpoint is an increase of at least 0.3 log (50% or more improvement) in mesopic contrast sensitivity with glare at two or more frequencies at 1.5, 3, 6, 12, and 18 cycles per degree, measured with Holladay Automated Contrast Sensitivity System methodology.

pharmacokinetic half-life (from percentage of eyes with at least 50% improvement in contrast sensitivity after the last dose, second period, 1% (w/v) (FIG. 4A)): approximately two
SMILES: Cc1ccc(N(CC2=NCCN2)c2cccc(O)c2)cc1 [Phentolamine Mesylate, phentolamine mesylate]
percentage of eyes with at least a 50% improvement in contrast sensitivity relative to baseline (tested prior to that day's dose (FIG. 2)): greater than 20% | percentage of eyes with at least a 50% improvement in contrast sensitivity relative to baseline (tested two hours after that day's dose (FIG. 1)): greater than 20% | percentage of eyes with at least a 50% improvement in contrast sensitivity, change over time (measured prior to that day's administration, from day 15 to day 32 (FIG. 3)): increased | efficacy with repeated dosing (contrast sensitivity) (once daily during the 15-day study period (FIGS. 1 and 2)): no diminution in efficacy was observed
